Patent US4211772A, “Benzopyran glycoside acetals and ketals” (Laboratoires Sarget, priority 1977, dated 1980)
Converted amounts (≈) assume the structure as drawn. Where two headings read alike, the source gives them in different places.

Columns and labels:
[1] = i.p. toxicity in Swiss EOPS mice, mortality at 14 days; settings: mouse, in vivo, ip, DMSO solution at 1/2, read-out: percentages of mortality at the end of 14 days
Procedure: The i.p. toxicities of certain compounds of the present invention were determined using male and female Swiss EOPS mice for administrations in DMSO solution at 1/2 under a volume of P/100.

carragenin edema = assay: Anti-inflammatory activity: carragenin edema test; format: in vivo; settings: Rattus norvegicus, ip, substantially alkaline pH solution, read-out: % inhibition of carragenin edema; for inhibition in vivo at 100 mg/kg: 100 mg/kg i.p.; for inhibition in vivo at 200 mg/kg: 200 mg/kg i.p.; for inhibition in vivo at 300 mg/kg: 300 mg/kg i.p.; for inhibition in vivo at 150 mg/kg: 150 mg/kg i.p.
Procedure: Anti-inflammatory activity
This was determined by the carragenin edema test using male Wistar EOPS rats. Inflammation was induced by the injection of 0.1 ml of a suspension of 5% carragenin in physiological serum into the muscular bundle of the metatarsal region of the posterior paw of the animal. The test substance was administered i.p. in neutralized solution at the same time as the carragenin.
Edema was measured by plethysmometry at different times after the administration of the carragenin.
Tables IV and V show the percentages of inhibition as a function of time and of dosage for certain compounds of the present invention.
The above results were obtained for solutions of substantially alkaline
The reference experiments were performed using physiological serum brough
to a pH approximately the same as the pH of the solutions to be tested.

Aldose Reductase = target: T1, Aldose Reductase (Bos taurus, UniProt P16116); assay: Inhibition of aldose reductase in vitro (enzyme from beef eye lenses, glyceraldehyde substrate); format: biochemical; settings: in DMF solution, read-out: percentages of inhibition (aldose reductase); for inhibition at 100 µM: 10^-4 mole/l; for inhibition at 10 µM: 10^-5 mole/l
T1 construct: The enzyme is extracted from beef eye lenses; from tissue; host or cells: beef eye lenses
Source text: Inhibition of Aldose Reductase In Vitro
The reoxidation of NADPH coupled to the enzymatic reaction was followed spectrophotometrically at 340 nm.

capillary permeability = assay: Capillaroprotecting effects: capillary permeability; format: in vivo, conventional male Wistar rats
Procedure: (§1) Capillaroprotecting effects
The capillary permeability was determined by the method of Charlier et al, Arch. Inter. Physiol.

Solubilities in water = format: physicochemical; settings: water; read-out: Solubilities in water
capillary resistance = assay: Capillaroprotecting effects: capillary resistance; format: in vivo, male OFA EOPS rats
Procedure: as §1
The capillary resistance was determined by a variant of the method of Charlier et al, Arch. Inter. Physiol.

Structure (SMILES) | mortality at 336 h ([1]; 500 mg/kg i.p.) | mortality at 336 h ([1]; 1000 mg/kg i.p.) | mortality at 336 h ([1]; 2000 mg/kg i.p.) | inhibition in vivo at 200 mg/kg (carragenin edema; 1/2 h) | inhibition in vivo at 300 mg/kg (carragenin edema; 1/2 h) | inhibition in vivo at 200 mg/kg (carragenin edema; 1 h, 1 h 1/2) | inhibition in vivo at 200 mg/kg (carragenin edema; 1 h, 1 h) | inhibition in vivo at 300 mg/kg (carragenin edema; 1 h, 1 h 1/2) | inhibition in vivo at 300 mg/kg (carragenin edema; 1 h, 1 h) | inhibition in vivo at 200 mg/kg (carragenin edema; 2 h, 2 h) | inhibition in vivo at 300 mg/kg (carragenin edema; 2 h, 2 h) | inhibition in vivo at 200 mg/kg (carragenin edema; 3 h, 3 h) | inhibition in vivo at 300 mg/kg (carragenin edema; 3 h, 3 h) | inhibition in vivo at 200 mg/kg (carragenin edema; 4 h, 4 h) | inhibition in vivo at 300 mg/kg (carragenin edema; 4 h, 4 h) | inhibition in vivo at 200 mg/kg (carragenin edema; 5 h, 5 h) | inhibition in vivo at 300 mg/kg (carragenin edema; 5 h, 5 h) | inhibition in vivo at 200 mg/kg (carragenin edema; 6 h, 6 h) | inhibition at 100 µM (Aldose Reductase) | inhibition at 10 µM (Aldose Reductase) | also measured
C[C@@H]1O[C@@H](O[C@H]2[C@H](Oc3cc(O)c4c(c3)OC(c3ccc(O)cc3)CC4=O)O[C@H](CO)[C@@H](O)[C@@H]2O)[C@@H]2OC(C)(C)O[C@@H]2[C@H]1O (stereo partly drawn) [No. 8, 7-O-(2,3-O,O-isopropylidene-2-α-L-rhamnosyl-β-D-glucosyl)-naringenin] | 0% | 0% | 0% | 9% | 62% | 70% | 42% | 74% | 78% | 60% | 73% | 28% | 50% | 27% | 50% | 22% | 33% | 24% | 25% | 0% | inhibition in vivo at 100 mg/kg (carragenin edema; 1/2 h): 23%; inhibition in vivo at 100 mg/kg (carragenin edema; 1 h, 1 h 1/2): 85%; inhibition in vivo at 100 mg/kg (carragenin edema; 1 h, 1 h): 64%; inhibition in vivo at 100 mg/kg (carragenin edema; 2 h, 2 h): 75%; inhibition in vivo at 100 mg/kg (carragenin edema; 3 h, 3 h): 48%; inhibition in vivo at 100 mg/kg (carragenin edema; 4 h, 4 h): 48%; inhibition in vivo at 100 mg/kg (carragenin edema; 5 h, 5 h): 35%; inhibition in vivo at 100 mg/kg (carragenin edema; 6 h, 6 h): 37%; inhibition in vivo at 300 mg/kg (carragenin edema; 6 h, 6 h): 35%
COc1ccc(-c2cc(=O)c3c(O)cc(O[C@@H]4O[C@H](CO[C@@H]5O[C@@H](C)[C@H](O)[C@H]6OC(C)(C)O[C@@H]56)[C@@H](O)[C@H](O)[C@H]4O)cc3o2)cc1O [No. 32, 7-O-(2,3-O,O-isopropylidene-6-α-L-rhamnosyl-β-D-glucosyl)diosmitin] | – | 0% | – | 8% | 0% | 35% | 16% | 38% | 8% | 43% | 44% | 36% | 31% | 30% | 32% | 20% | 43% | 20% | – | – | percentage reduction of capillary permeability (capillary permeability; 10 mg/kg i.p.): 7%; percentage reduction of capillary permeability (capillary permeability; 75 mg/kg i.p.): 32%; inhibition in vivo at 150 mg/kg (carragenin edema; 1/2 h): 5%; inhibition in vivo at 150 mg/kg (carragenin edema; 1 h, 1 h 1/2): 37%; inhibition in vivo at 150 mg/kg (carragenin edema; 1 h, 1 h): 17%; inhibition in vivo at 150 mg/kg (carragenin edema; 2 h, 2 h): 49%; inhibition in vivo at 150 mg/kg (carragenin edema; 3 h, 3 h): 43%; inhibition in vivo at 150 mg/kg (carragenin edema; 4 h, 4 h): 42%; inhibition in vivo at 150 mg/kg (carragenin edema; 5 h, 5 h): 37%; inhibition in vivo at 150 mg/kg (carragenin edema; 6 h, 6 h): 34%; inhibition in vivo at 300 mg/kg (carragenin edema; 6 h, 6 h): 36%
CC1(C)OC[C@H]2O[C@@H](Oc3cc4ccc(=O)oc4cc3O)[C@H](O)[C@@H](O)[C@@H]2O1 [No. 15, 6-O-(4,6-O,O-isopropylidene-β-D-glucosyl) esculetol] | 10% | 0% | 70% | 18% | – | 20% | 26% | – | – | 13% | – | 1% | – | 7% | – | 10% | – | 17% | 60% | 9% | solubility (Solubilities in water): 9200 µg/mL (≈ 24.2 mM); capillary resistance, effect observed (capillary resistance; 25 mg/kg i.p.): 17 ± 11.8 u cm Hg/h; capillary resistance, effect observed (capillary resistance; 50 mg/kg i.p.): 20 ± 12.9 u cm Hg/h; mortality at 336 h ([1]; 1500 mg/kg i.p.): 20%
O=c1ccc2cc(O[C@@H]3O[C@@H]4COC5(CCCCC5)O[C@H]4[C@H](O)[C@H]3O)c(O)cc2o1 [No. 16, 6-O-(4,6-O,O-cyclohexylidene-β-D-glucosyl) esculetol] | 10% | 80% | – | 59% | – | 45% | 59% | – | – | 46% | – | 30% | – | 23% | – | 27% | – | 24% | 63% | 14% | solubility (Solubilities in water): 1250 µg/mL (≈ 2.97 mM); capillary resistance, effect observed (capillary resistance; 25 mg/kg i.p.): 8.8 ± 6.8 u cm Hg/h; capillary resistance, effect observed (capillary resistance; 50 mg/kg i.p.): 23 ± 11.1 u cm Hg/h; mortality at 336 h ([1]; 750 mg/kg i.p.): 80%
